Columns and labels:
[1] = system: SKOV3 ovarian cancer cells; test: Phototoxicity: % viable SKOV3 cells (AlamarBlue) after incubation with photosensitizer and 680 nm LED activation; assay type: cell-based; settings: Homo sapiens, SK-OV-3, light or radiation study, 24 h uptake, 50 mW/cm^2 for 5 mins (15 J/cm^2), viability after further 24 h
Protocol: (§1) Photosensitizers (e.g. purpurin analogue, chlorin e4 disodium (provided by Advanced Molecular Technologies, Scoresby) or Talaporfin sodium (purchased from Focus Bioscience cat #HY-16477-5MG)) were resuspended in 100% dimethylsulfoxide (DMSO) at a concentration of 5.5 mM. Samples were stored at 4 °C protected from light.
(§2) For in vitro experiments, photosensitizers (stock solution 5.5 mM in 100% DMSO) were diluted 1:100 in concentrated excipient solution (final 55 μM photosensitizer in 10% w/v Kollidon-12, 42.4% w/v polysorbate 80, 40% w/v ethanol, 1.0% DMSO). Serial dilutions were prepared in cell culture media (Dulbecco's Modified Eagle Medium/Nutrient Mixture F-12 (DMEM/F-12)) supplemented with 10% v/v Fetal Bovine Serum, 100 U/mL penicillin, 100 μg/mL streptomycin and the same excipient solution at a constant 1:55 dilution.
(§3) Human ovarian cancer cell line SKOV3 (ATCC #HTB-77) was maintained in Dulbecco's Modified Eagle Medium/Nutrient Mixture F-12 (DMEM/F-12), supplemented with […] Fetal Bovine Serum, 100 U/mL penicillin and 100 μg/mL streptomycin. Monolayer cultures were grown in a humidified incubator at 37 °C with 5% CO2. Once cells had reached ~80% confluence, spent media was replaced with media containing photosensitizer at the required concentration and cells were incubated for the desired period of time to allow photosensitizer uptake.
(§4) All data were analysed using GraphPad PRISM v8.3.1 (549) (GraphPad Software, CA). Spectral absorbance and viability measurements were normalized in the range 0-100%, with a minimum of 0 and a maximum value determined from the dataset. Dose response was determined using a sigmoidal four-point non-linear regression with variable slope, and IC10 or IC90 calculated for each compound. All data are shown as mean±SD (where appropriate).
(§5) SKOV3 cells were seeded in 96-well black wall plates (Greiner #655090) at a cell density of 5000 cells in 100 μl culture medium per well. On reaching ~60% confluence, media was aspirated and replaced with fresh media containing the relevant purpurin analogue from 0-100 μM in DMSO. Cells were incubated for a further 24 hours, allowing uptake of purpurin analogues.
To test for phototoxicity, cells incubated with purpurin analogues ([…] in DMSO) had culture media replaced after 24 hours (as above) and were then exposed to a 680 nm light-emitting diode (LED) panel (Invion) with optical power density at 50 mW/cm^2 for 5 mins (total 15 J/cm^2). Laser and LED exposure induce an equivalent response in relation to phototoxicity. Following activation, cells were cultured for a further 24 hours. Media was then replaced with fresh media containing AlamarBlue, and % viable cells remaining assessed as above. Controls included cells treated with purpurin analogues but not activated by laser light; cells without purpurin analogue treatment but with laser light; and untreated controls. All measurements were made in quadruplicate.
(§6) The phototoxicity and inherent cytotoxicity (i.e. “dark toxicity”) of purpurin analogues were assessed as previously using SKOV3 ovarian cancer cells. For comparative purposes, purpurin analogues were compared against chlorin e4 disodium and Talaporfin sodium, a clinically approved photosensitizer used in the photodynamic treatment of lung cancers. Phototoxicity IC90 values and dark toxicity IC10 values were calculated using a log[inhibitor]-vs normalized response dose curve with variable slope, using the formula Y=100/(1+(IC90/X)^HillSlope (phototoxicity IC90)) or Y=100/(1+(IC10/X)^HillSlope (dark toxicity IC10)).

[2] = system: SKOV3 ovarian cancer cells; test: Inherent cytotoxicity (dark toxicity): % viable SKOV3 cells (AlamarBlue) without light; assay type: cell-based, human; settings: 24 h incubation, no light
Protocol: as §1, §2, §3, §4, §5
To test for inherent cytotoxicity (i.e. “dark toxicity”) of the purpurin analogues, the culture media was replaced after 24 hours with fresh media containing 10% (v/v) AlamarBlue Cell Viability Reagent (ThermoFisher) and cells incubated at 37 °C for 6 hours. Untreated cells were used as a control. Fluorescence (Ex 555 nm/Em 596 nm) was measured using a CLARIOstar Plus Microplate Readear (BMG Labtech), and cytotoxicity assessed according to the % viable cells remaining. All measurements were made in quadruplicate.
as §6

[3] = system: SKOV3 ovarian cancer cells; test: Therapeutic index (phototoxicity IC90 vs dark toxicity IC10); assay type: cell-based, human
Protocol: as §6
To evaluate the therapeutic potential of purpurin analogues, the therapeutic index (TI) was calculated. TI provides a quantitative measurement to describe relative drug safety, by comparing the drug concentration required for desirable effects versus the concentration resulting in undesirable off-target toxicity. TI was calculated using phototoxicity IC90 vs dark toxicity IC10.

[4] = system: indomethacin-induced gastric lesions; settings: rats; cited from earlier work
[5] = system: TAA- or CCl4-induced acute liver injuries; settings: mice; cited from earlier work

| Compound | IC90 [1] [nM] | Dark toxicity (IC10) [2] [nM] | Therapeutic Index [3] | protective effect against indomethacin-induced gastric lesions [4] | protective effect against TAA- or CCl4-induced acute liver injuries [5] |
| --- | --- | --- | --- | --- | --- |
| C=Cc1c(C)c2cc3nc(c4c5[nH]c(cc6nc(cc1[nH]2)C(C)=C6CC)c(C)c5C(=O)N(CCOCCOC)C4=O)[C@@H](CCC(=O)NCCC[P+](c1ccccc1)(c1ccccc1)c1ccccc1)[C@@H]3C [Compound 6, purpurin 18 (N-(3-triphenylphosphoniumpropyl)bromide)amide N-(2-(2-methoxyethoxy)ethyl)imide] | 9 | 51070 | 5674.44 | – | – |
| C=Cc1c(C)c2cc3nc(c4c5[nH]c(cc6nc(cc1[nH]2)C(C)=C6CC)c(C)c5C(=O)OC4=O)[C@@H](CCC(=O)NCCC[P+](c1ccccc1)(c1ccccc1)c1ccccc1)[C@@H]3C [Compound 5, purpurin 18 (N-(3-triphenylphosphoniumpropyl)bromide)amide] | 5 | 49880 | 9976.00 | – | – |
| CCC1=C(C)c2cc3[nH]c(cc4nc(c5c6[nH]c(cc1n2)c(C)c6C(=O)N(CCOCCOC)C5=O)[C@@H](CCC(=O)OC)[C@@H]4C)c(C)c3COC(=O)NCCC[P+](c1ccccc1)(c1ccccc1)c1ccccc1 [Compound 3, purpurin 18 13-(N-(3-triphenylphosphoniumpropyl)bromide)carbamate N-(2-(2-methoxyethoxy)ethyl)imide methyl ester] | 102 | 50840 | 498.43 | – | – |
| C=Cc1c(C)c2cc3nc(c4c5[nH]c(cc6nc(cc1[nH]2)C(C)=C6CC)c(C)c5C(=O)N(CCC[P+](c1ccccc1)(c1ccccc1)c1ccccc1)C4=O)[C@@H](CCC(=O)N(C)CCOCCOC)[C@@H]3C [Compound 4, purpurin 18 N-(3-triphenylphosphoniumpropylbromide)imide N-(2-(2-methoxyethoxy)ethyl)-N-methyl-amide] | 10 | 49910 | 4991.00 | – | – |
| CCCCCCN1C(=O)c2c3nc(cc4[nH]c(cc5nc(cc6[nH]c2c(c6C)C1=O)C(CC)=C5C)c(CN(C)C(=O)CCCC[P+](c1ccccc1)(c1ccccc1)c1ccccc1)c4C)[C@@H](C)[C@@H]3CCC(=O)OC [Compound 7, purpurin 18 N-hexylimide 13-(N-methyl-5-triphenylphosphonium bromidepentanamide) methyl ester] | 21 | 49400 | 2352.38 | – | – |
| C=Cc1c(C)c2cc3nc(c(C)c4nc(cc5[nH]c(cc1[nH]2)c(C)c5CC)C(C)=C4C(=O)O)[C@@H](CCC(=O)O)[C@@H]3C [Chlorin e4] | – | – | – | protective effect against indomethacin-induced gastric lesions in rats | protective effect |
| CCCCCCN1C(=O)c2c3nc(cc4[nH]c(cc5nc(cc6[nH]c2c(c6C)C1=O)C(CC)=C5C)c(COC(=O)NCCC[P+](c1ccccc1)(c1ccccc1)c1ccccc1)c4C)[C@@H](C)[C@@H]3CCC(=O)OC [Compound 1, purpurin 18 13-(N-(3-triphenylphosphoniumpropyl)bromide)carbamate N-hexylimide methyl ester] | 46 | 79630 | 1731.09 | – | – |
| C=Cc1c(C)c2cc3nc(c(CC(=O)N[C@@H](CC(=O)O)C(=O)O)c4[nH]c(cc5nc(cc1[nH]2)C(C)=C5CC)c(C)c4C(=O)O)[C@@H](CCC(=O)O)[C@@H]3C [Talaporfin sodium, reference compound] | – | 11100 | 0.49 | – | – |
| CCCCCCN1C(=O)c2c3nc(cc4[nH]c(cc5nc(cc6[nH]c2c(c6C)C1=O)C(CC)=C5C)c(COC(=O)CCCC[P+](c1ccccc1)(c1ccccc1)c1ccccc1)c4C)[C@@H](C)[C@@H]3CCC(=O)OC [Compound 2, purpurin 18 N-hexylimide 13-(oxopentyl)triphenylphosphonium bromide] | 27 | 77630 | 2875.19 | – | – |
| C=Cc1c(C)c2cc3nc(c(C)c4[nH]c(cc5nc(cc1[nH]2)C(C)=C5CC)c(C)c4C(=O)O)[C@@H](CCC(=O)O)[C@@H]3C [Chlorin e4 disodium, chlorin e4 disodium, reference compound] | 21300 | 40230 | 1.89 | – | – |

From patent US20260364174A1, “Purpurin Analogs for Use in Photodynamic Therapy” (RMW Cho Group Limited, priority 2023, published 2026)
